Data taken from patent publication US10770169B2, “Method of providing a treatment to a subject based on a dynamic pathway map” (THE REGENTS OF THE UNIVERSITY OF CALIFORNIA, priority 2010, dated 2020).

Test system: panel of 55 breast cancer cell lines
Test: Cell growth inhibition assay (Cell Titer Glo, 72 h, 9 doses; GI50, TGI, LC50)
Format: cell-based, human
Conditions: for GI50: value is the negative log10 of mol/L

In the case of COc1ccc(C2=N[C@@H](c3ccc(Cl)cc3)[C@@H](c3ccc(Cl)cc3)N2C(=O)N2CCNC(=O)C2)c(OC(C)C)c1 [Nutlin 3a], the GI50 (cell line 600MPE) is reported as 4.32, the GI50 (cell line AU565, censored GI50 values) is reported as 4.79 and the GI50 (cell line AU565) is reported as 4.79. For the same compound, the GI50 (cell line BT20, censored GI50 values) was 4.47, the GI50 (cell line BT20) was 4.47 and the GI50 (cell line BT474, censored GI50 values) was 4.39. It also gave a GI50 (cell line BT474) of 4.39, a GI50 (cell line BT483, censored GI50 values) of 5.19 and a GI50 (cell line BT483) of 5.19. For the same compound, the GI50 (cell line BT549) was 4.35, the GI50 (cell line CAMA1) was 4.30 and the GI50 (cell line HCC38, censored GI50 values) was 4.66. It also gave a GI50 (cell line HCC38) of 4.66, a GI50 (cell line HCC70, censored GI50 values) of 4.73 and a GI50 (cell line HCC70) of 4.73. For the same compound, the GI50 (cell line HCC202, censored GI50 values) was 5.02, the GI50 (cell line HCC202) was 5.02 and the GI50 (cell line HCC1143, censored GI50 values) was 4.67. For the same compound, the GI50 (cell line HCC1143) was 4.67, the GI50 (cell line HCC1187, censored GI50 values) was 4.68 and the GI50 (cell line HCC1187) was 4.68. For the same compound, the GI50 (cell line HCC1395, censored GI50 values) was 4.65, the GI50 (cell line HCC1395) was 4.65 and the GI50 (cell line HCC1419, censored GI50 values) was 4.39. It also gave a GI50 (cell line HCC1419) of 4.39, a GI50 (cell line HCC1428, censored GI50 values) of 4.50 and a GI50 (cell line HCC1428) of 4.50. For the same compound, the GI50 (cell line HCC1500, censored GI50 values) was 4.57, the GI50 (cell line HCC1500) was 4.57 and the GI50 (cell line HCC1806) was 4.29. For the same compound, the GI50 (cell line HCC1937, censored GI50 values) was 4.63, the GI50 (cell line HCC1937) was 4.63 and the GI50 (cell line HCC1954, censored GI50 values) was 4.76. It also gave a GI50 (cell line HCC1954) of 4.76, a GI50 (cell line HCC2185, censored GI50 values) of 4.81 and a GI50 (cell line HCC2185) of 4.81. It also gave a GI50 (cell line HCC3153, censored GI50 values) of 4.44, a GI50 (cell line HCC3153) of 4.44 and a GI50 (cell line LY2, censored GI50 values) of 5.35. For the same compound, the GI50 (cell line LY2) was 5.35, the GI50 (cell line MCF7, censored GI50 values) was 5.24 and the GI50 (cell line MCF7) was 5.24. The GI50 (cell line MDAMB134V) was 4.76, the GI50 (cell line MDAMB134VI, censored GI50 values) was 4.76 and the GI50 (cell line MDAMB157, censored GI50 values) was 4.45. The GI50 (cell line MDAMB157) was 4.45, the GI50 (cell line MDAMB175V) was 5.08 and the GI50 (cell line MDAMB175VII, censored GI50 values) was 5.08. For the same compound, the GI50 (cell line MDAMB231) was 4.18, the GI50 (cell line MDAMB361) was 4.23 and the GI50 (cell line MDAMB415, censored GI50 values) was 4.59. For the same compound, the GI50 (cell line MDAMB415) was 4.59, the GI50 (cell line MDAMB436) was 4.30 and the GI50 (cell line MDAMB453) was 4.32. The GI50 (cell line MDAMB468, censored GI50 values) was 4.44, the GI50 (cell line MDAMB468) was 4.44 and the GI50 (cell line SKBR3) was 4.32. The GI50 (cell line SUM52PE, censored GI50 values) was 4.73, the GI50 (cell line SUM52PE) was 4.73 and the GI50 (cell line SUM149PT, censored GI50 values) was 4.56. It also gave a GI50 (cell line SUM149PT) of 4.56, a GI50 (cell line SUM159PT, censored GI50 values) of 4.78 and a GI50 (cell line SUM159PT) of 4.78. For the same compound, the GI50 (cell line SUM185PE, censored GI50 values) was 4.54, the GI50 (cell line SUM185PE) was 4.54 and the GI50 (cell line SUM225CWN, censored GI50 values) was 4.69. It also gave a GI50 (cell line SUM225CWN) of 4.69, a GI50 (cell line SUM1315MO2, censored GI50 values) of 4.67 and a GI50 (cell line SUM1315MO) of 4.67. For the same compound, the GI50 (cell line T47D, censored GI50 values) was 4.51, the GI50 (cell line T47D) was 4.51 and the GI50 (cell line UACC812, censored GI50 values) was 4.45. It also gave a GI50 (cell line UACC812) of 4.45, a GI50 (cell line UACC893, censored GI50 values) of 4.69 and a GI50 (cell line UACC893) of 4.69. It also gave a GI50 (cell line ZR75B, censored GI50 values) of 5.69, a GI50 (cell line ZR75B) of 5.69 and a GI50 (cell line ZR751, censored GI50 values) of 5.51. For the same compound, the GI50 (cell line ZR751) was 5.51.

COc1cccc(-c2cc(=O)c3ccccc3o2)c1N [PD 98059] gave a GI50 (AU565 cell line, censored GI50 values) of 5.12, a GI50 (CAMA1 cell line, censored GI50 values) of 4.65 and a GI50 (HCC1187 cell line, censored GI50 values) of 5.56. The GI50 (HCC1937 cell line, censored GI50 values) was 4.50, the GI50 (cell line 600MPE) was 4.30 and the GI50 (cell line AU565) was 5.12. The GI50 (cell line BT20) was 4.04, the GI50 (cell line BT474) was 4.00 and the GI50 (cell line BT483) was 4.12. It also gave a GI50 (cell line CAMA1) of 4.65, a GI50 (cell line HCC70) of 4.30 and a GI50 (cell line HCC1143) of 4.00. It also gave a GI50 (cell line HCC1187) of 5.56, a GI50 (cell line HCC1395) of 4.00 and a GI50 (cell line HCC1419) of 4.20. The GI50 (cell line HCC1428) was 4.12, the GI50 (cell line HCC1806) was 4.30 and the GI50 (cell line HCC1937) was 4.50. The GI50 (cell line HCC1954) was 4.30, the GI50 (cell line HCC2185) was 4.55 and the GI50 (cell line MDAMB134V) was 4.12. For the same compound, the GI50 (cell line MDAMB175V) was 4.24, the GI50 (cell line MDAMB361) was 4.30 and the GI50 (cell line MDAMB468) was 4.32. It also gave a GI50 (cell line SKBR3) of 4.73, a GI50 (cell line SUM52PE) of 4.92 and a GI50 (cell line SUM149PT) of 4.44. For the same compound, the GI50 (cell line SUM159PT) was 4.30, the GI50 (cell line SUM185PE) was 4.88 and the GI50 (cell line SUM225CWN) was 4.42. The GI50 (cell line SUM1315MO) was 4.30, the GI50 (cell line T47D) was 4.30 and the GI50 (cell line UACC812) was 4.27. It also gave a GI50 (cell line ZR75B) of 4.00 and a GI50 (cell line ZR751) of 4.32.

With O=C(Nc1cc(Cl)cc2c1[nH]c1cnccc12)c1cccnc1 [PS1145] the “variability in cell line response” value (across the cell line panel) was “variability in cell line response was minimal”.
